The text below walks through data of ChEMBL document CHEMBL4373740, “Synthesis and biological evaluation of new MET inhibitors with 1,6-naphthyridinone scaffold” (Eur J Med Chem, 2020).

A short description of series [1]: Antiproliferative activity against human NIH-H460 cells at 10 uM incubated for 72 hrs by MTT assay relative to control. It counts as functional. The following applies: NIH-H460, 72 h. In general terms: Formazan colour is commonly taken as a measure of viable cells.
Series [2] concerns the target Mitogen-activated protein kinase 9 (Homo sapiens) (UniProt P45984). The series can be described thus: Inhibition of recombinant full length human His-tagged MAPK9 expressed in baculovirus expression system at 1 uM using biotin as substrate preincubated for 5 mins followed by substrate addition and measured after 30 to 60 mins in presence of ATP by HTRF assay relative to control.

The nature of series [3]: Mean residence time in Sprague-Dawley rat at 5.0 mg/kg, ig measured for 15 min to 72 hrs by LC-MS/MS analysis. It counts as ADME, organism-based. Particulars: in vivo, po.
The target of series [4] is Vascular endothelial growth factor receptor 2 (Homo sapiens, UniProt P35968). The series can be described thus: Inhibition of purified recombinant VEGFR2 kinase domain (unknown origin) using biotin as substrate preincubated for 5 mins followed by substrate addition and measured after 30 to 60 mins in presence of ATP by HTRF assay.
Series [5] deals with Ribosomal protein S6 kinase alpha-5 (Homo sapiens) (UniProt O75582). As to the kind of experiment: Inhibition of recombinant full length human GST-tagged RPS6KA5 expressed in baculovirus expression system at 1 uM using biotin as substrate preincubated for 5 mins followed by substrate addition and measured after 30 to 60 mins in presence of ATP by HTRF assay relative to control. A general note: Time-resolved FRET reads energy transfer from a long-lived donor to a nearby acceptor.

In series [6] the target is Tyrosine-protein kinase CSK (Homo sapiens) (UniProt P41240). The series can be described thus: Inhibition of recombinant full length human His-tagged CSK at 1 uM using biotin as substrate preincubated for 5 mins followed by substrate addition and measured after 30 to 60 mins in presence of ATP by HTRF assay relative to control.
Series [7] addresses Proto-oncogene tyrosine-protein kinase ROS (Homo sapiens) (UniProt P08922). The series can be described thus: Inhibition of recombinant human GST-tagged ROS1 catalytic domain (1883 to 2347 residues) expressed in baculovirus expression system at 1 uM using biotin as substrate preincubated for 5 mins followed by substrate addition and measured after 30 to 60 mins in presence of ATP by HTRF assay relative to control.

Series [8] is described as follows: Volume of distribution in Sprague-Dawley rat at 5.0 mg/kg, ig measured for 15 min to 72 hrs by LC-MS/MS analysis. It is filed as ADME, organism-based. Particulars: in vivo, po.
For series [9], the target named is Macrophage colony-stimulating factor 1 receptor (Homo sapiens) (UniProt P07333). The series can be described thus: Inhibition of recombinant full length human His-tagged CSF1R expressed in baculovirus expression system at 1 uM using biotin as substrate preincubated for 5 mins followed by substrate addition and measured after 30 to 60 mins in presence of ATP by HTRF assay relative to control.

The target of series [10] is Proto-oncogene tyrosine-protein kinase receptor Ret (Homo sapiens) (UniProt P07949). The series can be described thus: Inhibition of recombinant human GST/His6-tagged RET (658 to 1114 residues) expressed in baculovirus infected Sf9 insect cells at 1 uM using biotin as substrate preincubated for 5 mins followed by substrate addition and measured after 30 to 60 mins in presence of ATP by HTRF assay relative to control.

Series [11] can be described thus: Oral bioavailability in Sprague-Dawley rat at 5.0 mg/kg, ig measured for 15 min to 72 hrs by LC-MS/MS analysis. It counts as ADME, organism-based. The following applies: in vivo.
Series [12] deals with Aurora kinase B (Homo sapiens) (UniProt Q96GD4). The series can be described thus: Inhibition of recombinant full length human His-tagged Aurora B expressed in baculovirus expression system at 1 uM using biotin as substrate preincubated for 5 mins followed by substrate addition and measured after 30 to 60 mins in presence of ATP by HTRF assay relative to control.

Some results are limits rather than exact numbers.

Sequence of Macrophage colony-stimulating factor 1 receptor (Homo sapiens) (P07333 whole entry): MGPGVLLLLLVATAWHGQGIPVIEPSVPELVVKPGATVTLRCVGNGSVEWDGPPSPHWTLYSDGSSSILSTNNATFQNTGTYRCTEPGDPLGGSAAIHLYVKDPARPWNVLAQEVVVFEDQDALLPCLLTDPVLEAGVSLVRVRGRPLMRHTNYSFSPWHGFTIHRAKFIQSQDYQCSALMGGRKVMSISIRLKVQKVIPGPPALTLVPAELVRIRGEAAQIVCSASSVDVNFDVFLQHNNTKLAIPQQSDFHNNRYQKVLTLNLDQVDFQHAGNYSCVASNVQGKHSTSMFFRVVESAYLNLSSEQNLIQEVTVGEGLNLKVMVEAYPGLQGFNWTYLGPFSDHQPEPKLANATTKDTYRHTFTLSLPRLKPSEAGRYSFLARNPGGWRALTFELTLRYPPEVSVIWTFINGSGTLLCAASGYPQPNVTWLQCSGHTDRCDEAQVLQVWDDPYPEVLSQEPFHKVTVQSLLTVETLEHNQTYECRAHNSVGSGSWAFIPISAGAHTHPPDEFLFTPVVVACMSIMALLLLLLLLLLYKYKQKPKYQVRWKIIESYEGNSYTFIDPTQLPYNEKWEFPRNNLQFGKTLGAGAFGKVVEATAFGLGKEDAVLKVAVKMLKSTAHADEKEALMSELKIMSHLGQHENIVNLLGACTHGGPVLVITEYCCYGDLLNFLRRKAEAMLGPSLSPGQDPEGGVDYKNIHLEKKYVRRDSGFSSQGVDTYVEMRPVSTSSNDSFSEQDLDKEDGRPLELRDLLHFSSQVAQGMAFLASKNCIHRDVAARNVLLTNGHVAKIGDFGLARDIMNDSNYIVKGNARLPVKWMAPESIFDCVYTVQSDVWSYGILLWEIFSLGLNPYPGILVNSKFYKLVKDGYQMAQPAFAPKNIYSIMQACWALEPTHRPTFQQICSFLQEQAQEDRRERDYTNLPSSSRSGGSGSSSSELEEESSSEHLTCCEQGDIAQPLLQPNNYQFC
Sequence of Ribosomal protein S6 kinase alpha-5 (Homo sapiens) (O75582 whole entry, looked up): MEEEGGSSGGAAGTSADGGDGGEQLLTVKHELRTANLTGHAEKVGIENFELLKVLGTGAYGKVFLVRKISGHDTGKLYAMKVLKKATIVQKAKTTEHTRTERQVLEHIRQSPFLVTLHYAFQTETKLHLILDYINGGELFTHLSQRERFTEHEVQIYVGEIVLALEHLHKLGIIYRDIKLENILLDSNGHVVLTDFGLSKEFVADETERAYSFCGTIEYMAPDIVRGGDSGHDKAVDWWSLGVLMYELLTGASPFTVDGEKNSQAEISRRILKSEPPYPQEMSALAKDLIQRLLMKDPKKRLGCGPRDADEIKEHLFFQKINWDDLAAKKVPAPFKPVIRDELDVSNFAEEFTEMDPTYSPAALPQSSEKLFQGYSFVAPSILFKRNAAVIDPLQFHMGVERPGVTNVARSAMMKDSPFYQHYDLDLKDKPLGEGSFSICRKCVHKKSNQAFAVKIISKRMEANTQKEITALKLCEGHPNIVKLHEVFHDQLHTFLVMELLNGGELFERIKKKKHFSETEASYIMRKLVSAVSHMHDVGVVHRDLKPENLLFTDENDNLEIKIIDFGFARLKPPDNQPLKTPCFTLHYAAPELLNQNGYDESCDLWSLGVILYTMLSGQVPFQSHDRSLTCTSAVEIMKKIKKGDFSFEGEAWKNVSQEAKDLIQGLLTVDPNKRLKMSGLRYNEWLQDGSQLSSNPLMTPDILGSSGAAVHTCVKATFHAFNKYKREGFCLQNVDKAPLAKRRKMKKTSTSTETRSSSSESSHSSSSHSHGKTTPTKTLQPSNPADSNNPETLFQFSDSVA
Sequence of Proto-oncogene tyrosine-protein kinase ROS (Homo sapiens) (P08922 whole entry, the tested form may be a part): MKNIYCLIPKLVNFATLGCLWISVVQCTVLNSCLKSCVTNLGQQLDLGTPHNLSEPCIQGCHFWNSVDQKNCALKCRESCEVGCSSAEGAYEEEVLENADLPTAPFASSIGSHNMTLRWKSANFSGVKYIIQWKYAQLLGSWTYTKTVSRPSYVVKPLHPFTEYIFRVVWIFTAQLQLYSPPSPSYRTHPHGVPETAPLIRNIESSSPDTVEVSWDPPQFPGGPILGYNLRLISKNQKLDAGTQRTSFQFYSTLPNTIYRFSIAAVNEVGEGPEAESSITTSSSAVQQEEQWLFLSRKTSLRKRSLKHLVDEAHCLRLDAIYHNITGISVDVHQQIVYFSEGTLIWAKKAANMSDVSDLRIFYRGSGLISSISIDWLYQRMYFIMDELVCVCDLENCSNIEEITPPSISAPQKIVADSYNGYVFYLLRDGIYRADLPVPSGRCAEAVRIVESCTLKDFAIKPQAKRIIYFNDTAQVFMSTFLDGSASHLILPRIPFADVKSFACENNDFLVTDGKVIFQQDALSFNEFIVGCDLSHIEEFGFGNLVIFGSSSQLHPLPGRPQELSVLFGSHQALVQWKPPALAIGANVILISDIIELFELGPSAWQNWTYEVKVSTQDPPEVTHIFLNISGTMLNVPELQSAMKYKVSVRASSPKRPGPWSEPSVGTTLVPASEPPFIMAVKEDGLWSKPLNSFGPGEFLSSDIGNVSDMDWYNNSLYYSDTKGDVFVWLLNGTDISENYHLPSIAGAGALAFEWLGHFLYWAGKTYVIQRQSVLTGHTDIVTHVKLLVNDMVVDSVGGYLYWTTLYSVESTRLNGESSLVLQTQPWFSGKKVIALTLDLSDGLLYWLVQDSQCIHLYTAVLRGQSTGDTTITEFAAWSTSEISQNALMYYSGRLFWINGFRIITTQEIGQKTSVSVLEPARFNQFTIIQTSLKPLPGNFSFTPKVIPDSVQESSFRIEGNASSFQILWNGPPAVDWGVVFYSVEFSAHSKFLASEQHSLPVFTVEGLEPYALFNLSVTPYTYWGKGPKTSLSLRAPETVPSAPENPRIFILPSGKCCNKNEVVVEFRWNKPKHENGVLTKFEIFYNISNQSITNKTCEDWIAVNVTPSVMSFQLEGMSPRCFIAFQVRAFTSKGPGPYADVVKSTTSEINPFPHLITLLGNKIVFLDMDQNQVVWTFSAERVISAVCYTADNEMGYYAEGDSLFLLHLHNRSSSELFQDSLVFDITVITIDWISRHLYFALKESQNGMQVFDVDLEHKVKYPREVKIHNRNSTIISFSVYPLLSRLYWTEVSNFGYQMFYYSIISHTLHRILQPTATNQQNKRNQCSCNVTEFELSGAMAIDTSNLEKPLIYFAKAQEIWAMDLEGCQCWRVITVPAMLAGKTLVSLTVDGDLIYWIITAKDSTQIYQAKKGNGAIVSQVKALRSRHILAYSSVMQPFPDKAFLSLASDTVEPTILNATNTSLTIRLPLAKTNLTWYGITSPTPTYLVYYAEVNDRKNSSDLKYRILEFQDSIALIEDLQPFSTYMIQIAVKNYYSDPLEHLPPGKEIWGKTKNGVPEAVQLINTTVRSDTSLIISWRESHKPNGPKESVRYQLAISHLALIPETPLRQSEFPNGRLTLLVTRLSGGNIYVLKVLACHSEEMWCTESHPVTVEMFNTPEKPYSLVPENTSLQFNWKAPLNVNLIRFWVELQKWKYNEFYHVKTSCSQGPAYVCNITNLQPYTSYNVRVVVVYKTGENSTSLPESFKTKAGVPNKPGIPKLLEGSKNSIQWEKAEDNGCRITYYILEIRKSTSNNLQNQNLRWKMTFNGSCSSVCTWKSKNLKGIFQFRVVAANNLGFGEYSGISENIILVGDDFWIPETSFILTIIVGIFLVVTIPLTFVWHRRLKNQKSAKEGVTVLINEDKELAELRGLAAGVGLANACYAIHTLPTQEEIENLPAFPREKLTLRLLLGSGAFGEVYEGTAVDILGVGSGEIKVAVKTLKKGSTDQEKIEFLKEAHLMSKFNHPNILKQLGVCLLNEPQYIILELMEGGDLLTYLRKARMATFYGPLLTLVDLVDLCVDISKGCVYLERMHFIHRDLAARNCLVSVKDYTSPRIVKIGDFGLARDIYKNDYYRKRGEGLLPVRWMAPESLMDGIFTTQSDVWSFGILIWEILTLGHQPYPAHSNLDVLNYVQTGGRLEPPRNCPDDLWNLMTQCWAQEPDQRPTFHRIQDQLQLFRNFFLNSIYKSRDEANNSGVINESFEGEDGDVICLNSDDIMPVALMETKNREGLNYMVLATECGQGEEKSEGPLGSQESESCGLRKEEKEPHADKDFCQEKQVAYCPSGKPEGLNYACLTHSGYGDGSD
Sequence of Aurora kinase B (Homo sapiens) (Q96GD4 whole entry): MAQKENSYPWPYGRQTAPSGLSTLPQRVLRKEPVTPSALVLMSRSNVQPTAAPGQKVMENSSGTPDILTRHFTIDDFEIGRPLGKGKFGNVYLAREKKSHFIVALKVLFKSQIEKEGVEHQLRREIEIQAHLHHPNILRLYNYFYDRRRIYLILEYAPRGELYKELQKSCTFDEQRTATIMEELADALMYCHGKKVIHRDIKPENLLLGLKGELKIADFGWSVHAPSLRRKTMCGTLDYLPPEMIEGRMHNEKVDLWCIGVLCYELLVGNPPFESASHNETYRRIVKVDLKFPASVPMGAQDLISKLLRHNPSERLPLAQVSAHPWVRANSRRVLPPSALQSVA
Sequence of Tyrosine-protein kinase CSK (Homo sapiens) (P41240 2-450 limits assumed): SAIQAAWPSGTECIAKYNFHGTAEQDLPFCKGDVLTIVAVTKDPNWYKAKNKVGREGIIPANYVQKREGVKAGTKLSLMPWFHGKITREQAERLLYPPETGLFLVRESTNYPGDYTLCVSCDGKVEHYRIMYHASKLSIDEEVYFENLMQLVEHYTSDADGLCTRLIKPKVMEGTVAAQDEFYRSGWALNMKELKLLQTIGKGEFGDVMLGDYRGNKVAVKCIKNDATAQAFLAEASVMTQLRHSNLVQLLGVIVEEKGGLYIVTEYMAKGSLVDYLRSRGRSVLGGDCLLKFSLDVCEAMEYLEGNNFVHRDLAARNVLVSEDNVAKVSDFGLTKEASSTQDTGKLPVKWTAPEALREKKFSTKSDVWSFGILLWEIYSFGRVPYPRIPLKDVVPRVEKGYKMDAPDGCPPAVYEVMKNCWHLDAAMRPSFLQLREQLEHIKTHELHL

On to `Cn1cc(-c2ccc(F)cc2)c(=O)c2c(Nc3ccc(Oc4ccnc(NC(=O)C5CC5)c4)c(F)c3)nccc21`, for which the inhibition (usually the change of the read-out against control, counted positive when it falls) at 10 µM in series [1] turned out to be 15.6%. Besides, the inhibition in series [2], in [5], in series [6], in [7], in series [9] and in [10] was less than 50% throughout. Also, the inhibition in series [12] is less than 50%. Besides, in series [3], the MRT (usually a mean duration of stay, worked out from the concentration-time curve) was found to be 32.4 h. Further, in [4], the IC50 – broadly, the concentration that inhibits the measured activity by half – amounted to 22.9 µM. For the same compound, the Vd in [8] was 0.6 L/kg. In addition, the bioavailability (in general, the share of a dose that reaches the circulation, judged against a reference dose that is usually intravenous) in series [11] was 58%.
